Test results published in US20230341377A1, “DISCONNECTION AGENTS” (DC Europa Limited, priority 2020, published 2023).

Key:
[1] = system: Hs578 cell line for human breast cancer, U373 cell line of human glioblastoma, and HepG2 hepatocellular carcinoma cells; experiment: SMS assay (small molecule sharing), cell dye-sharing between cancer cells, cell lines pooled; format: cell-based; settings: for effect on cell dye-sharing in the SMS assay: concentration range of 0.1 to 30 μM; for inhibition of cell dye-sharing in the SMS assay: various doses that are not cytotoxic, in one or more cell lines
Text: (§1) The SMS assay was developed to assess the transfer of cell dye (for example the acetoxymethyl [AM]-based Calcein AM), between cancer cells. The SMS assay can be applied to any cell lines forming tumour networks such as tumour microtubes (TM) or tunneling nanotubes (TNT), which enable the transfer of molecules across cells. The SMS assay can be used to assess networking capabilities of any cancer cell lines including HepG2 hepatocellular carcinoma cells, Hs578T cell line for human breast cancer, and U373 cell line for human glioblastoma.
(§2) The SMS assay is illustrated in FIG. 1. For the SMS assay, two sets of cells are stained with the cell dye of choice and a customary cell tracker dye (for example cell tracker blue) using established staining techniques (steps 1 and 2). Each set of cells are then co-incubated with the compound of interest to assess its capabilities to modulate the cells small molecule sharing characteristics (step 3). Then the two sets of cells are combined on a plate, for example at a ratio of 1:1, and cultured in the presence of the compound of interest (Step 4).
(§3) Finally, live cells are evaluated for viability and analyzed by flow cytometry for the uptake of cell dye in the […] cells (Step 5). The comparison of cell tracker uptake against positive and negative control enables the assessment of the compound's ability to modulate the tumour networks including those formed by TM and TNTs
(§4) The SMS assay has been applied to assess the modulation of network sharing capabilities of Protein Kinase C Modulators (PKCm) at various concentrations in the Hs578 cell line for human breast cancer, U373 cell line of human glioblastoma, and HepG2 hepatocellular carcinoma cells. PBS vehicle was used as negative control and the PKCm PHORBOL 12-MYRISTATE 13-ACETATE (PMA) at a concentration of 5 nM was used as the positive control.
(§5) FIG. 2A and FIG. 2B show the percentage of cell tracker cells that were accepting the cell dye transfer from separately stained donor cells according to the SMS assay of Example. The percentage of acceptor cells detected is shown in comparison to vehicle (upper horizontal line) and PMA at 5-10 nM concentration (lower horizontal line). Active PKCm in the SMS assay (FIG. 2A) show a decrease in acceptor cells relative to vehicle at certain concentration. […] The upper limit of the tested concentrations was determined as the maximal non-cytotoxic dose.

Hs578T cells = experiment: SMS assay in Hs578T cells; format: cell-based, human; settings: versus vehicle and PMA (5 nM), FIG. 2A, 2B, 2D, 2E
Text: as §1, §2, §3, §4, §5

PKCβI/PKCβII = system: PKCβI/PKCβII; set-up: key: +—activation; ++—strong activation; settings: cited from earlier work; for activation of PKCβI/PKCβII: cPKCs, gene PRKCB
PKCα = PKCα (Homo sapiens, UniProt P17252); set-up: key: +—activation; ++—strong activation; settings: cPKCs, gene PRKCA; cited from earlier work
HepG2 cells = experiment: SMS assay in HepG2 cells; format: cell-based, human; settings: versus vehicle and PMA (10 nM), FIG. 2C
Text: as §1
(§6) The SMS assay is illustrated in FIG. 1. For the SMS assay, two sets of cells are stained with the cell dye of choice and a customary cell tracker dye (for example cell tracker blue) using established staining techniques (steps 1 and 2). […]
(§7) Finally, live cells are evaluated for viability and analyzed by flow cytometry for the uptake of cell dye in the flow tracker-stained cells (Step 5). […]
as §5, with “line).” for “line). Active PKCm in the SMS assay (FIG. 2A) show a decrease in acceptor cells relative to vehicle at certain concentration.”

PKCε = target: T1, PKCε (Homo sapiens, UniProt Q02156); set-up: key: +—activation; ++—strong activation; settings: nPKCs, gene PRKCE; cited from earlier work
T1 sequence (Q02156 1-737): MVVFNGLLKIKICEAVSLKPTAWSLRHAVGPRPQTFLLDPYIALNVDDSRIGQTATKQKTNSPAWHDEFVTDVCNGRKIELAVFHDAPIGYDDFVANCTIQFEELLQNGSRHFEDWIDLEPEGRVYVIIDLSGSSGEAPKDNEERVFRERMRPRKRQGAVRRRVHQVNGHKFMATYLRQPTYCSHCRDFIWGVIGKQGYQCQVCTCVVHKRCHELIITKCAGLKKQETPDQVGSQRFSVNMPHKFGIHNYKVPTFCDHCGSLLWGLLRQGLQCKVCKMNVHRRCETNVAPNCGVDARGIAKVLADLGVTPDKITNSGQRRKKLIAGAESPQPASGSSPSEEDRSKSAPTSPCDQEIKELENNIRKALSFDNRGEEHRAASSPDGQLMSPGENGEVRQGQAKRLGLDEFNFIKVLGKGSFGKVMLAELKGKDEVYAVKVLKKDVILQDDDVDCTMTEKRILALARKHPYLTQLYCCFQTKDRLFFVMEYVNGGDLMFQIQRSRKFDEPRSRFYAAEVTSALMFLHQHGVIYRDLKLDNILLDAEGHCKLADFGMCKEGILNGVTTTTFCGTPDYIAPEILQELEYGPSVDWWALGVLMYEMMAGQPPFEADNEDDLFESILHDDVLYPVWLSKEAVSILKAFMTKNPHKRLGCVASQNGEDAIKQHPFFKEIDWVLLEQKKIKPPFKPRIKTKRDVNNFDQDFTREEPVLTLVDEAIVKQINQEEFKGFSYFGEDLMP

PKCδ = PKCδ (Homo sapiens, UniProt Q05655); set-up: key: +—activation; ++—strong activation; settings: nPKCs, gene PRKCD; cited from earlier work
PKCγ = PKCγ (Homo sapiens, UniProt P05129); set-up: key: +—activation; ++—strong activation; settings: cPKCs, gene PRKCG; cited from earlier work
PKCη = PKCη (Homo sapiens, UniProt P24723); set-up: key: +—activation; ++—strong activation; settings: nPKCs, gene PRKCH; cited from earlier work
PKCθ = PKCθ (Homo sapiens, UniProt Q04759); set-up: key: +—activation; ++—strong activation; settings: nPKCs, gene PRKCQ; cited from earlier work
U373 cells = experiment: SMS assay in U373 cells; format: cell-based, human; settings: versus vehicle and PMA (10 nM), FIG. 2C
Text: as §1, §6, §7
as §5, with “line).” for “line). Active PKCm in the SMS assay (FIG. 2A) show a decrease in acceptor cells relative to vehicle at certain concentration.”

PKCδ, sequence (Q05655 whole entry): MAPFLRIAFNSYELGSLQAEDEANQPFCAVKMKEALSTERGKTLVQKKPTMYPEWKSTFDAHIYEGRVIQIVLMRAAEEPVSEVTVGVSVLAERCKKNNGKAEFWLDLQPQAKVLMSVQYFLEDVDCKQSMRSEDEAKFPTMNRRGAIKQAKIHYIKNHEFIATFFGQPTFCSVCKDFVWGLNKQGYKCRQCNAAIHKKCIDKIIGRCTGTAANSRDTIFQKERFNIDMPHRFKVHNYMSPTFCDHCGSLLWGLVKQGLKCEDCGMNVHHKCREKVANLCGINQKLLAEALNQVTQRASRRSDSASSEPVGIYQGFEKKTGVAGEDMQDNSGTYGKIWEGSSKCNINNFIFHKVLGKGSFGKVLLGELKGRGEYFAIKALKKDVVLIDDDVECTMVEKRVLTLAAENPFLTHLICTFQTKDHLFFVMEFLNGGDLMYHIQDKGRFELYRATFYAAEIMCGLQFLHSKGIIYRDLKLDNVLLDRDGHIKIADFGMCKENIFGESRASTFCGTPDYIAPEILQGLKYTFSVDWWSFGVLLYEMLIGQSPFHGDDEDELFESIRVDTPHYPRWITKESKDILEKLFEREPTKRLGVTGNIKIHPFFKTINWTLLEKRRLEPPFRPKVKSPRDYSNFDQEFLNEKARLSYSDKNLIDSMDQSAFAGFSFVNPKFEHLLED
PKCη, sequence (P24723 whole entry): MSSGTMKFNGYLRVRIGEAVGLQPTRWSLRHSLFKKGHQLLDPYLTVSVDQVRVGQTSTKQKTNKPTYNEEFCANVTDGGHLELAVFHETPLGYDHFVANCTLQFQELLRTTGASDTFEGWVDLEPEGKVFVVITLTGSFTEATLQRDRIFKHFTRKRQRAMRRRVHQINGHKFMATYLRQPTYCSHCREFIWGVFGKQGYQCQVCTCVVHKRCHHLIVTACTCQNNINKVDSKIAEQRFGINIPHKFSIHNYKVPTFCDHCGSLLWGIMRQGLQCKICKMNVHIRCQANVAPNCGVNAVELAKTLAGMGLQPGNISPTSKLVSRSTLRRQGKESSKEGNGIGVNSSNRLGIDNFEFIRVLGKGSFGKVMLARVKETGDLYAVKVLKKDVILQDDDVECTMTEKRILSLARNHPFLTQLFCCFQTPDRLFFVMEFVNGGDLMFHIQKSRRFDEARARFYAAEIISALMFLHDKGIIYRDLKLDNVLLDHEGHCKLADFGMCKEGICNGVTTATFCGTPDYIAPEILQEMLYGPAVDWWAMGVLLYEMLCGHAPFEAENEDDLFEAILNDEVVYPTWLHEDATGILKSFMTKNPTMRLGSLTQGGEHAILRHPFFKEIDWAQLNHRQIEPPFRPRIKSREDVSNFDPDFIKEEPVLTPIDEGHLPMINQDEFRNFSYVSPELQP
PKCθ, sequence (Q04759 whole entry): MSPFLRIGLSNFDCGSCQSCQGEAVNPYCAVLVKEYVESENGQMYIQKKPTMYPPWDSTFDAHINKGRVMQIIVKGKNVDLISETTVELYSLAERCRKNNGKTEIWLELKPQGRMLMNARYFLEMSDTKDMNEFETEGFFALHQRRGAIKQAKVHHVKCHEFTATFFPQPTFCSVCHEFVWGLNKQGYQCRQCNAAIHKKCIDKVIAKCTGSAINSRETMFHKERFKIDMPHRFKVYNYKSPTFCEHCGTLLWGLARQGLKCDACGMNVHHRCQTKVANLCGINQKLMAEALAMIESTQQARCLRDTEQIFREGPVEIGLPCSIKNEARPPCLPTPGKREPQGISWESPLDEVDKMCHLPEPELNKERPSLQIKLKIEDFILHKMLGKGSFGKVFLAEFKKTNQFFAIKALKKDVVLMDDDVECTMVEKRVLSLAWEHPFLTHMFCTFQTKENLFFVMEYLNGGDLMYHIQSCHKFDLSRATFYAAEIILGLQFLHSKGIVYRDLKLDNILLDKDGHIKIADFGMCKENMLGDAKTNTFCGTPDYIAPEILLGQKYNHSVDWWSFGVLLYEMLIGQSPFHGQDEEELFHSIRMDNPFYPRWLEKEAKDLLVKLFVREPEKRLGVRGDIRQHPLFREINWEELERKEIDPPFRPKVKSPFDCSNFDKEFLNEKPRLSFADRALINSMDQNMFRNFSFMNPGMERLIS

Compound	effect on cell dye-sharing in the SMS assay [1]	cell dye-sharing in the SMS assay (percentage of acceptor cells) (Hs578T cells)	activation of PKCα (PKCα)	inhibition of cell dye-sharing in the SMS assay [1]	activation of PKCε (PKCε)	activation of PKCβI/PKCβII (PKCβI/PKCβII)	activation of PKCδ (PKCδ)	activation of PKCγ (PKCγ)	other results
CCCCCCCCCCNc1cc(CO)c2cc[nH]c2c1 [6-(N-Decylamino)-4-Hydroxymethylindole]	did not have any effect	not interfering with cell dye-sharing	–	–	–	–	–	–	–
CCC/C=C/C=C/C(=O)O[C@H]1/C(=C/C(=O)OC)C[C@H]2C[C@H]([C@@H](C)O)OC(=O)C[C@H](O)C[C@@H]3C[C@H](OC(C)=O)C(C)(C)[C@](O)(C[C@@H]4C/C(=C/C(=O)OC)C[C@H](/C=C/C(C)(C)[C@]1(O)O2)O4)O3 [Bryostatin 1]	–	–	+	marked inhibition of cell dye-sharing	+	–	–	–	activation of PKCβI (PKCβI/PKCβII; βI only, activation and translocation in transfected CHO cells (Wender 2011)): + (βI); cell dye-sharing in the SMS assay (percentage of acceptor cells) (HepG2 cells): inhibition of cell dye-sharing
CCCCCC1CC1CC1CC1CCCCCCCC(=O)O (centres unmarked) [FR236924]	did not have any effect	not interfering with cell dye-sharing	–	–	–	–	–	–	–
CC(C)[C@H]1C(=O)N[C@H](CO)Cc2c[nH]c3cccc(c23)N1C [Indolactam V]	–	inhibition of cell dye-sharing	+	marked inhibition of cell dye-sharing	+	++	++	+	activation of PKCη (PKCη): +
C/C=C(/C)C(=O)O[C@H]1C(C)=C[C@]23C(=O)[C@@H](C=C(CO)[C@@H](O)[C@]12O)[C@H]1[C@@H](C[C@H]3C)C1(C)C [Ingenol-3-angelate]	did not have any effect	–	+	–	+	+	+	+	disconnection of tumour cell types in the assay for disconnection ([1]; several different tumour cell types): does not disconnect
CCCCCCCCCCCCCC(=O)O[C@@H]1[C@@H](C)[C@@]2(O)[C@@H](C=C(CO)C[C@]3(O)C(=O)C(C)=C[C@@H]23)[C@@H]2C(C)(C)[C@]12OC(C)=O [PMA, 12-O-tetradecanoyl-phorbol-13-acetate]	–	inhibition of cell dye-sharing	+	marked inhibition of cell dye-sharing	+	+	+	+	activation of PKCθ (PKCθ): +; activation of PKCη (PKCη): +
O=S(=O)(NCCCCCCc1ccccc1)c1cccc2c(Cl)cccc12 [SC-9]	did not have any effect	not interfering with cell dye-sharing	–	–	–	–	–	–	–
CCC/C=C/C=C/C(=O)O[C@H]1/C(=C/C(=O)OC)C[C@H]2C[C@H]([C@@H](C)O)OC(=O)C[C@H](O)C[C@@H]3C[C@H](OC(C)=O)C(C)(C)[C@](O)(C[C@@H]4C/C(=C/C(=O)OC)C[C@H](/C=C/C(C)(C)[C@]1(O)O2)O4)O3 [bryostatin]	–	inhibition of cell dye-sharing	–	–	–	–	–	–	–
Bryostatin 2	–	–	–	marked inhibition of cell dye-sharing	–	–	–	–	cell dye-sharing in the SMS assay (percentage of acceptor cells) (U373 cells): inhibition of cell dye-sharing
